This note sets out measurements from patent US4450269A, “Mono-5-substituted-3-chloro-4H-1,2,6-thiadiazin-4-one antifungal agents” (FMC Corporation, priority 1980, dated 1984).

One may read the inhibition as the drop in the measured response relative to a control, in per cent.

The assay has as its system Helminthosporium oryzae. Nature of the assay: Mycelial growth test. The note with it: Bipolaris oryzae, 72 h.
The mark [1] stands for this setting: read-out: Percent Fungus Growth Inhibition, HO, 5 ppm, 72 hours.
[2] abbreviates: read-out: Percent Fungus Growth Inhibition, HO, 10 ppm, 72 hours.
Where [3] appears, read: read-out: Percent Fungus Growth Inhibition, HO, 20 ppm, 72 hours.
[4] abbreviates: read-out: Percent Fungus Growth Inhibition, HO, 40 ppm, 72 hours.
Where [5] appears, read: read-out: Percent Fungus Growth Inhibition.

Molecules are shown by their SMILES. Like-named read-outs stand apart in the source and are kept apart here.

Experimental: HO = Helminthosporium oryzae
Aliquots of previously prepared solutions of active ingredient in acetone were added to tubes containing 20 ml of sterile, melted potato dextrose agar that had been cooled to 50° C. to provide mixtures of 40, 20, 10, 5 and 2.5 ppm. The tubes were shaken to ensure thorough mixing of the chemical with the agar, and the mixture poured into petri dishes having 4 quadrants to solidify. Each quadrant was inoculated with a 4 mm diameter disc of agar containing mycelium of the test fungi and incubated at 25° C. for 72 hours during which the samples were alternately exposed to light for 12 hours and to darkness for 12 hours. Growth was measured at the end of the incubation period by measuring the diameter of each fungus colony. Two measurements of the diameter, perpendicular to each other, were taken and the values averaged. Data are reported as percent inhibition (%I) by the following formula: [formula] Captan and chlorothalonil were used as standards for comparison.

In the case of `O=c1c(Cl)nsnc1Oc1ccccc1Br` [Compound 34, 3-chloro-5-(2-bromophenoxy)-4H-1,2,6,-thiadiazin-4-one], the inhibition at 5 ppm under setting [1] worked out at 74%. For the same compound, the inhibition at 10 ppm under setting [2] was 74%. For the same compound, the inhibition at 20 ppm under setting [3] is 100%. Besides, the inhibition at 40 ppm under setting [4] came to 100%.
In the case of `O=c1c(Cl)nsnc1Oc1ccc(O)cc1` [Compound 35, 3-chloro-5-(4-hydroxyphenoxy)-4H-1,2,6-thiadiazin-4-one], the inhibition at 5 ppm under setting [1] was found to be 83%. Also, the inhibition at 10 ppm under setting [2] is 100%. Besides, under setting [3], the inhibition at 20 ppm was determined as 89%. Moreover, the inhibition at 40 ppm under setting [4] was found to be 100%.
As to `O=C(Nc1ccccc1)Oc1ccc(Oc2nsnc(Cl)c2=O)cc1` [Compound 37, 3-chloro-5-[4-(phenylaminocarbonyloxy)phenoxy]-4H-1,2,6,-thiadiazin-4-one], under setting [5], the inhibition at 5 ppm stood at 27%, the inhibition at 10 ppm was determined as 13%, the inhibition at 20 ppm was determined as 60% and the inhibition at 40 ppm amounted to 47%.
As to `O=C(OCc1ccccc1)Oc1ccc(Oc2nsnc(Cl)c2=O)cc1` [Compound 38, 3-chloro-5-[4-(phenylmethoxycarbonyloxy)phenoxyl]-4H-1,2,6-thiadiazin-4-one], the inhibition at 5 ppm under setting [1] is 56%. The inhibition at 10 ppm under setting [2] worked out at 39%. Further, the inhibition at 20 ppm under setting [3] is 89%. Besides, the inhibition at 40 ppm under setting [4] worked out at 100%.
Turning to `CSc1ccc(Oc2nsnc(Cl)c2=O)cc1` [Compound 39, 3-chloro-5-[(4-methylthio)phenoxy]-4H-1,2,6,-thiadiazin-4-one], under setting [1], the inhibition at 5 ppm was found to be 73%. In addition, under setting [2], the inhibition at 10 ppm is 87%. In addition, the inhibition at 20 ppm under setting [3] stood at 100%. For the same compound, the inhibition at 40 ppm under setting [4] came out at 80%.
For the compound `C[S+]([O-])c1ccc(Oc2nsnc(Cl)c2=O)cc1` (centres unmarked) [Compound 40, 3-chloro-5-[(4-methylsulfinyl)phenoxy]-4H-1,2,6,-thiadiazin-4-one], the inhibition at 5 ppm under setting [1] amounted to 40%. For the same compound, the inhibition at 10 ppm under setting [2] was 60%. The inhibition at 20 ppm under setting [3] came out at 87%. Moreover, the inhibition at 40 ppm under setting [4] was 100%.
Consider `CS(=O)(=O)c1ccc(Oc2nsnc(Cl)c2=O)cc1` [Compound 41, 3-chloro-5-[(4-methylsulfonyl)phenoxy]-4H--1,2,6-thiadiazin-4-one], for which, under setting [1], the inhibition at 5 ppm is 40%. Besides, under setting [2], the inhibition at 10 ppm is 60%. Besides, under setting [3], the inhibition at 20 ppm came to 33%. Further, the inhibition at 40 ppm under setting [4] stood at 60%.
As to `CC(=O)Nc1cccc(Oc2nsnc(Cl)c2=O)c1` [Compound 42, 3-[(3-N--acetylamino)-phenoxy]-5-chloro-4H--1,2,6-thiadiazin-4-one], the inhibition at 5 ppm under setting [1] is 23%. Under setting [2], the inhibition at 10 ppm came to 38%. Besides, the inhibition at 20 ppm under setting [3] was 100%. Also, the inhibition at 40 ppm under setting [4] was determined as 100%.
Take `CC(=O)Nc1ccccc1Oc1nsnc(Cl)c1=O` [Compound 43, 3-[(2-acetylamino)-phenoxy]-5-chloro-4H--1,2,6-thiadiazin-4-one]: the inhibition at 5 ppm under setting [1] was 61%. Besides, the inhibition at 10 ppm under setting [2] stood at 70%. Further, the inhibition at 20 ppm under setting [3] came to 65%. The inhibition at 40 ppm under setting [4] amounted to 91%.
For `O=c1c(Cl)nsnc1Oc1cccc(C(F)(F)F)c1` [Compound 44, 3-chloro-5-[(3-trifluoromethyl)phenoxy]-4H--1,2,6-thiadiazin-4-one], in that order: 100%, 100%, 100% and 100%.
Take `O=C(O)Cc1ccccc1Oc1nsnc(Cl)c1=O` [Compound 45, 3-(2-carboxymethylphenoxy)-5-chloro-4H--1,2,6-thiadiazin-4-one]: the inhibition at 5 ppm under setting [1] is 0%. Under setting [2], the inhibition at 10 ppm was determined as 0%. The inhibition at 20 ppm under setting [3] is 63%. Besides, the inhibition at 40 ppm under setting [4] was determined as 100%.
Turning to `N#CCc1ccc(Oc2nsnc(Cl)c2=O)cc1` [Compound 46, 3-chloro-5-[(4-cyanomethyl)-phenoxy]4H--1,2,6-thiadiazin-4-one], under setting [1], the inhibition at 5 ppm was 67%. Also, the inhibition at 10 ppm under setting [2] is 89%. Besides, the inhibition at 20 ppm under setting [3] turned out to be 100%. The inhibition at 40 ppm under setting [4] turned out to be 100%.
Regarding `CC(=O)c1ccc(Oc2nsnc(Cl)c2=O)cc1` [Compound 47, 3-(4-acetylphenoxy)-5-chloro-4H--1,2,6-thiadiazin-4-one], the inhibition at 5 ppm under setting [1] was found to be 75%. Moreover, the inhibition at 10 ppm under setting [2] came out at 88%. For the same compound, the inhibition at 20 ppm under setting [3] was 100%. Also, the inhibition at 40 ppm under setting [4] worked out at 100%.
`CC(=O)c1cccc(Oc2nsnc(Cl)c2=O)c1` [Compound 48, 3-(3-acetylphenoxy)-5-chloro-4H--1,2,6-thiadiazin-4-one]: the inhibition at 5 ppm under setting [1] worked out at 100%. Under setting [2], the inhibition at 10 ppm turned out to be 63%. The inhibition at 20 ppm under setting [3] was found to be 100%. The inhibition at 40 ppm under setting [4] worked out at 100%.
Take `CC(=O)c1ccccc1Oc1nsnc(Cl)c1=O` [Compound 49, 3-(2-acetylphenoxy)-5-chloro-4H--1,2,6-thiadiazin-4-one]: under setting [1], the inhibition at 5 ppm came to 74%. For the same compound, the inhibition at 10 ppm under setting [2] was determined as 100%. Moreover, the inhibition at 20 ppm under setting [3] is 100%. In addition, the inhibition at 40 ppm under setting [4] worked out at 100%.
As to `O=C(O)c1ccc(Oc2nsnc(Cl)c2=O)cc1` [Compound 50, 3-(4-carboxyphenoxy)-5-chloro-4H--1,2,6-thiadiazin-4-one], the inhibition at 5 ppm under setting [1] stood at 75%. For the same compound, the inhibition at 10 ppm under setting [2] was 38%. Further, the inhibition at 20 ppm under setting [3] was 100%. For the same compound, the inhibition at 40 ppm under setting [4] is 100%.
Regarding `COc1ccc(Cl)c(Oc2nsnc(Cl)c2=O)c1` [Compound 51, 3-chloro-5-[(2-chloro-5-methoxy)phenoxy]-4H--1,2,6-thiadiazin-4-one], under setting [1], the inhibition at 5 ppm amounted to 78%. In addition, under setting [2], the inhibition at 10 ppm was found to be 100%. For the same compound, the inhibition at 20 ppm under setting [3] was found to be 100%. The inhibition at 40 ppm under setting [4] amounted to 100%.
For `COc1cc(Cl)cc(Oc2nsnc(Cl)c2=O)c1` [Compound 52, 3-chloro-5-[(3-chloro-5-methoxy)phenoxy]-4H--1,2,6-thiadiazin-4-one], the inhibition at 5 ppm under setting [1] was determined as 100%. Moreover, the inhibition at 10 ppm under setting [2] was 89%. Besides, the inhibition at 20 ppm under setting [3] turned out to be 100%. Moreover, the inhibition at 40 ppm under setting [4] came out at 100%.
With `O=c1c(Cl)nsnc1Oc1ccc([N+](=O)[O-])cc1Cl` [Compound 53, 3-chloro-5-(2-chloro-4-nitrophenoxy)-4H--1,2,6-thiadiazin-4-one], the inhibition at 5 ppm under setting [1] was found to be 27%. Further, the inhibition at 10 ppm under setting [2] stood at 100%. Moreover, the inhibition at 20 ppm under setting [3] stood at 100%. For the same compound, under setting [4], the inhibition at 40 ppm was found to be 100%.
For `Cc1cc(Oc2nsnc(Cl)c2=O)ccc1Cl` [Compound 54, 3-chloro-5-(4-chloro-3-methylphenoxy)-4H--1,2,6-thiadiazin-4-one], the inhibition at 5 ppm under setting [1] turned out to be 43%. The inhibition at 10 ppm under setting [2] amounted to 91%. The inhibition at 20 ppm under setting [3] was determined as 73%. Also, the inhibition at 40 ppm under setting [4] is 100%.
Turning to `Cc1cc(Cl)ccc1Oc1nsnc(Cl)c1=O` [Compound 55, 3-chloro-5-(4-chloro-2-methylphenoxy)-4H--1,2,6-thiadiazin-4-one], under setting [1], the inhibition at 5 ppm came to 100%. Under setting [2], the inhibition at 10 ppm came out at 100%. The inhibition at 20 ppm under setting [3] is 91%. Moreover, under setting [4], the inhibition at 40 ppm worked out at 100%.
As for `Cc1ccc(Cl)c(Oc2nsnc(Cl)c2=O)c1` [Compound 56, 3-chloro-5-[(2-chloro-5-methyl)phenoxy]-4H--1,2,6-thiadiazin-4-one], the inhibition at 5 ppm under setting [1] was found to be 67%. The inhibition at 10 ppm under setting [2] came out at 100%. Under setting [3], the inhibition at 20 ppm worked out at 100%. Also, the inhibition at 40 ppm under setting [4] is 100%.
For the compound `Cc1ccc(Oc2nsnc(Cl)c2=O)c(Br)c1` [Compound 57, 3-[(2-bromo-4-methyl)-phenoxy]-5-chloro-4H--1,2,6-thiadiazin-4-one], under setting [1], the inhibition at 5 ppm came out at 100%. Moreover, the inhibition at 10 ppm under setting [2] is 100%. Also, the inhibition at 20 ppm under setting [3] is 100%. In addition, the inhibition at 40 ppm under setting [4] worked out at 100%.
